One experiment has as its target T1, human μ-opiate receptor (Homo sapiens, UniProt P35372).
T1 construct: purchased PerkinElmer Life Sciences, Zaventem, Belgium RB-HOM; host or cells: CHO-K1 cells (recombinant expression; membrane preparation)
The experiment in a line: Affinity for the human μ-opiate receptor ([3H]-naloxone displacement, SPA). The settings on record: Table 1, aldehydes; test substance 1 μmole/l; inhibition of specific [3H]-naloxone binding; CHO-K1 membranes; read-out: μ-Opioid receptor, % inhibition [1 μM]. The method in brief: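 CHO-K1 membranes expressing the receptor, incubated 90 min at room temperature with 1 nmol/l [3H]-naloxone and WGA-SPA beads in 50 mmol/l Tris-HCl with 0.06% BSA. Non-specific binding defined with 100 μmol/l naloxone. Value is % inhibition of specific binding at 1 μmol/l test substance.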
T1 sequence (P35372 whole entry): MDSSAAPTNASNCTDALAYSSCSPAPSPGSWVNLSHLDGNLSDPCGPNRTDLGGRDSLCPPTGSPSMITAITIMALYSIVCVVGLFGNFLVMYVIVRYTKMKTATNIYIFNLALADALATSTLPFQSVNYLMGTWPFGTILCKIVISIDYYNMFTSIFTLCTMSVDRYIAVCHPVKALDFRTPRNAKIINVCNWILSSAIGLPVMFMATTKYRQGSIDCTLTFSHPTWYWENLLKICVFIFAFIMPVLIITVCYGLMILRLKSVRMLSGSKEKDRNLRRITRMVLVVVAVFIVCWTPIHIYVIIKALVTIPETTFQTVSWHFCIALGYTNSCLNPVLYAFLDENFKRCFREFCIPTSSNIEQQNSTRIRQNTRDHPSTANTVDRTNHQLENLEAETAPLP
Take `CN(C)C(c1ccc(Cl)cc1)C1CCC(C=O)CC1` (stereo not drawn) [Example 9c, 4-[(4-chlorophenyl)-dimethylaminomethyl]-cyclohexane-carbaldehyde]: the inhibition at 1 µM worked out at 45%.

Consider `CN(C)C(c1cccs1)C1CCC(CC=O)CC1` (stereo not drawn) [Example 10d, {4-[dimethylamino-thiophen-2-yl-methyl]-cyclohexyl}-acetaldehyde], for which the inhibition at 1 µM amounted to 79%.

The experiment is the same for the next values; noted with them: Table 2, Examples 11-161; test substance 1 μmole/l; inhibition of specific [3H]-naloxone binding; CHO-K1 membranes; read-out: μ-Opioid receptor, % inhibition [1 μM].
`CCCCN1C=NC(CCSC)(C(=O)OC)C1CC1CCC(C(c2cccc(F)c2)N(C)C)CC1` (stereo not drawn) [Example 123, 1-butyl-5-{4-[dimethylamino-(3-fluorophenyl)-methyl]-cyclohexylmethyl}-4-(2-methylsulfanylethyl)-4,5-dihydro-1H-imidazole-4-carboxylic acid methyl ester]: the inhibition at 1 µM was found to be 98%.

Take `CCCCN1C=NC(CSCc2ccccc2)(C(=O)OC)C1C1CCC(C(c2ccc(Cl)cc2)N(C)C)CC1` (stereo not drawn) [Example 69, 4-benzylsulfanylmethyl-1-butyl-5-{4-[(4-chlorophenyl)-dimethylaminomethyl]-cyclohexyl}-4,5-dihydro-1H-imidazole-4-carboxylic acid methyl ester]: the inhibition at 1 µM worked out at 95%.

For `CCCCN1C=NC(CSCc2ccccc2)(C(=O)OC)C1CC1CCC(C(c2ccc(Cl)cc2)N(C)C)CC1` (stereo not drawn) [Example 90, 4-benzylsulfanylmethyl-1-butyl-5-{4-[(4-chlorophenyl)-dimethylaminomethyl]-cyclohexylmethyl}-4,5-dihydro-1H-imidazole-4-carboxylic acid methyl ester], the inhibition at 1 µM is 99%.

Turning to `COC(=O)C1(CC(C)C)N=CN(CCc2ccccc2)C1CC1CCC(C(c2ccc(Cl)cc2)N(C)C)CC1` (stereo not drawn) [Example 43, 5-{4-[(4-chlorophenyl)-dimethylaminomethyl]-cyclohexylmethy}-4-isobutyl-1-phenethyl-4,5-dihydro-1H-imidazole-4-carboxylic acid methyl ester], the inhibition at 1 µM was 97%.

Consider `CCCCC1(C(=O)OC)N=CN(C2CCCCC2)C1CC1CCC(C(c2ccc(Cl)cc2)N(C)C)CC1` (stereo not drawn) [Example 19, 4-butyl-5-{4-[(4-chlorophenyl)-dimethylaminomethyl]-cyclohexylmethyl}-1-cyclohexyl-4,5-dihydro-1H-imidazole-4-carboxylic acid methyl ester], for which the inhibition at 1 µM worked out at 96%.

With `CCC(C)C1(C(=O)OC)N=CN(C2CCCCC2)C1CC1CCC(C(c2ccc(F)cc2)N(C)C)CC1` (stereo not drawn) [Example 152, 4-sec-butyl-1-cyclohexyl-5-{4-[dimethylamino-(4-fluorophenyl)-methyl]-cyclohexylmethyl}-4,5-dihydro-1H-imidazole-4-carboxylic acid methyl ester], the inhibition at 1 µM is 93%.

As to `CCCCN1C=NC(CCC)(C(=O)OC)C1CC1CCC(C(c2ccc(F)cc2)N(C)C)CC1` (stereo not drawn) [Example 125, 1-butyl-5-{4-[dimethylamino-(4-fluorophenyl)-methyl]-cyclohexylmethyl}-4-propyl-4,5-dihydro-1H-imidazole-4-carboxylic acid methyl ester], the inhibition at 1 µM stood at 91%.

Take `COC(=O)C1(CSCc2ccccc2)N=CN(CCc2ccccc2)C1C1CCC(C(c2ccc(Cl)cc2)N(C)C)CC1` (stereo not drawn) [Example 93, 4-benzylsulfanylmethyl-5-{4-[(4-chlorophenyl)-dimethylaminomethyl]-cyclohexyl}-1-phenethyl-4,5-dihydro-1H-imidazole-4-carboxylic acid methyl ester]: the inhibition at 1 µM was determined as 92%.

For `CCCCC1(C(=O)OC)N=CN(CCC)C1CC1CCC(C(c2ccc(Cl)cc2)N(C)C)CC1` (stereo not drawn) [Example 28, 4-butyl-5-{4-[(4-chlorophenyl)-dimethylaminomethyl]-cyclohexylmethyl}-1-propyl-4,5-dihydro-1H-imidazole-4-carboxylic acid methyl ester], the inhibition at 1 µM stood at 97%.

For `CCCN1C=NC(CC(C)C)(C(=O)OC)C1CC1CCC(C(c2ccc(Cl)cc2)N(C)C)CC1` (stereo not drawn) [Example 26, 5-{4-[(4-chlorophenyl)-dimethylaminomethyl]-cyclohexylmethyl}-4-isobutyl-1-propyl-4,5-dihydro-1H-imidazole-4-carboxylic acid methyl ester], the inhibition at 1 µM turned out to be 96%.

As to `COC(=O)CCC1(C(=O)OC)N=CN(C2CCCCC2)C1C1CCC(C(c2cccc(F)c2)N(C)C)CC1` (stereo not drawn) [Example 115, 1-cyclohexyl-5-{4-[dimethylamino-(3-fluorophenyl)-methyl]-cyclohexyl}-4-(2-methoxycarbonylethyl)-4,5-dihydro-1H-imidazole-4-carboxylic acid methyl ester], the inhibition at 1 µM amounted to 98%.

With `COC(=O)C1(C)N=CN(Cc2ccccc2)C1CC1CCC(C(c2ccc(F)cc2)N(C)C)CC1` (stereo not drawn) [Example 143, 1-benzyl-5-{4-[dimethylamino-(4-fluorophenyl)-methyl]-cyclohexylmethyl}-4-methyl-4,5-dihydro-1H-imidazole-4-carboxylic acid methyl ester], the inhibition at 1 µM was 100%.

For the molecule `COC(=O)C1(C)N=CN(Cc2ccccc2)C1CC1CCC(C(c2cccc(F)c2)N(C)C)CC1` (stereo not drawn) [Example 140, 1-benzyl-5-{4-[dimethylamino-(3-fluorophenyl)-methyl]-cyclohexylmethyl}-4-methyl-4,5-dihydro-1H-imidazole-4-carboxylic acid methyl ester], the inhibition at 1 µM was determined as 98%.

In the case of `COC(=O)C1(CC(C)C)N=CN(C2CCCCC2)C1C1CCC(C(c2ccc(Cl)cc2)N(C)C)CC1` (stereo not drawn) [Example 14, 5-{4-[(4-chlorophenyl)-dimethylaminomethyl]-cyclohexyl}-1-cyclohexyl-4-isobutyl-4,5-dihydro-1H-imidazole-4-carboxylic acid methyl ester], the inhibition at 1 µM was 92%.

Turning to `CCCCN1C=NC(CCC(=O)OC)(C(=O)OC)C1C1CCC(C(c2cccc(F)c2)N(C)C)CC1` (stereo not drawn) [Example 65, 1-butyl-5-{4-[dimethylamino-(3-fluorophenyl)-methyl]-cyclohexyl}-4-(2-methoxycarbonylethyl)-4,5-dihydro-1H-imidazole-4-carboxylic acid methyl ester], the inhibition at 1 µM is 78%.

In the case of `CCCCC1(C(=O)OC)N=CN(CCc2ccccc2)C1CC1CCC(C(c2ccc(Cl)cc2)N(C)C)CC1` (stereo not drawn) [Example 45, 4-butyl-5-{4-[(4-chlorophenyl)-dimethylaminomethyl]-cyclohexylmethyl}-1-phenethyl-4,5-dihydro-1H-imidazole-4-carboxylic acid methyl ester], the inhibition at 1 µM was 97%.

On to `COC(=O)C1(CCSC)N=CN(Cc2ccccc2)C1CC1CCC(C(CCc2ccccc2)N(C)C)CC1` (stereo not drawn) [Example 145, 1-benzyl-5-[4-(1-dimethylamino-3-phenylpropyl)-cyclohexylmethyl]-4-(2-methylsulfanyl-ethyl)-4,5-dihydro-1H-imidazole-4-carboxylic acid methyl ester], for which the inhibition at 1 µM was 79%.

With `COC(=O)CCC1(C(=O)OC)N=CN(CCc2ccccc2)C1CC1CCC(C(c2ccc(F)cc2)N(C)C)CC1` (stereo not drawn) [Example 83, 5-{4-[dimethylamino-(4-fluorophenyl)-methyl]-cyclohexylmethyl}-4-(2-methoxycarbonylethyl)-1-phenethyl-4,5-dihydro-1H-imidazole-4-carboxylic acid methyl ester], the inhibition at 1 µM was determined as 77%.

For the molecule `CCCN1C=NC(CCC)(C(=O)OC)C1CC1CCC(C(CCc2ccccc2)N(C)C)CC1` (stereo not drawn) [Example 120, 5-[4-(1-dimethylamino-3-phenylpropyl)-cyclohexylmethyl]-1,4-dipropyl-4,5-dihydro-1H-imidazole-imidazole-4-carboxylic acid methyl ester], the inhibition at 1 µM was 62%.

Regarding `COC(=O)C1(CCSC)N=CN(CCc2ccccc2)C1CC1CCC(C(c2cccc(F)c2)N(C)C)CC1` (stereo not drawn) [Example 130, 5-{4-[dimethylamino-(3-fluorophenyl)-methyl]-cyclohexylmethyl}-4-(2-methylsulfanylethyl)-1-phenethyl-4,5-dihydro-1H-imidazole-4-carboxylic acid methyl ester], the inhibition at 1 µM was 97%.

On to `COC(=O)C1(CSC)N=CN(Cc2ccccc2)C1C1CCC(C(c2cccc(F)c2)N(C)C)CC1` (stereo not drawn) [Example 96, 1-benzyl-5-{4-[dimethylamino-(3-fluorophenyl)-methyl]-cyclohexyl}-4-methylsulfanylmethyl-4,5-dihydro-1H-imidazole-4-carboxylic acid methyl ester], for which the inhibition at 1 µM is 97%.

Consider `COC(=O)C1(CSCc2ccccc2)N=CN(Cc2ccccc2)C1C1CCC(C(c2cccc(F)c2)N(C)C)CC1` (stereo not drawn) [Example 97, 1-benzyl-4-benzylsulfanylmethyl-5-{4-[dimethylamino-(3-fluorophenyl)-methyl]-cyclohexyl}-4,5-dihydro-1H-imidazole-4-carboxylic acid methyl ester], for which the inhibition at 1 µM stood at 97%.

Turning to `CCCC1(C(=O)OC)N=CN(Cc2ccccc2)C1CC1CCC(C(c2ccc(F)cc2)N(C)C)CC1` (stereo not drawn) [Example 141, 1-benzyl-5-{4-[dimethylamino-(4-fluorophenyl)-methyl]-cyclohexylmethyl}-4-propyl-4,5-dihydro-1H-imidazole-4-carboxylic acid methyl ester], the inhibition at 1 µM worked out at 98%.

On to `COC(=O)C1(CC(C)C)N=CN(Cc2ccccc2)C1CC1CCC(C(c2ccc(Cl)cc2)N(C)C)CC1` (stereo not drawn) [Example 50, 1-benzyl-5-{4-[(4-chlorophenyl)-dimethylaminomethyl]-cyclohexylmethyl}-4-isobutyl-4,5-dihydro-1H-imidazole-4-carboxylic acid methyl ester], for which the inhibition at 1 µM amounted to 94%.

As for `CCCN1C=NC(CC(C)C)(C(=O)OC)C1C1CCC(C(c2cccc(F)c2)N(C)C)CC1` (stereo not drawn) [Example 21, 5-{4-[dimethylamino-(3-fluorophenyl)-methyl]-cyclohexyl}-4-isobutyl-1-propyl-4,5-dihydro-1H-imidazole-4-carboxylic acid methyl ester], the inhibition at 1 µM came to 83%.

The inhibition is the share of the control response that was lost under treatment.

The values above are taken from patent US7728028B2, “Substituted imidazoline compounds” (Gruenenthal GmbH, priority 2005, dated 2010).
